Experimental data from PubChem BioAssay AID248 (DTP/NCI, 2004).
“And” between values parts separate entries of the source, which are not always exact repeats. Equal entries are not always repeated. Toxic doses and inconclusive results are not listed. No stated cut-off is given here; in the data, active means T/C of 150% or more; inactive means T/C below 125%.

Test system: L1210 leukemia ip in BDF1 mice, survival T/C
Assay: NCI In Vivo Anticancer Drug Screen. Data for tumor model L1210 Leukemia (intraperitoneal) in B6D2F1 (BDF1) mice
Conditions: endpoint: mean survival time, higher = longer survival
Outline: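 Ratio derived from survival: compound-dosed mice over vehicle-dosed mice, all bearing a transplantable tumor.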

[1] = dose: 50.0 mg/kg/injection, schedule: Q01DX009 (ip), vehicle: saline with Tween-80
[2] = dose: 100.0 mg/kg/injection, schedule: Q01DX009 (ip), vehicle: saline with Tween-80
[3] = dose: 200.0 mg/kg/injection, schedule: Q01DX009 (ip), vehicle: saline with Tween-80
[4] = dose: 12.5 mg/kg/injection, schedule: Q04DX002 (ip), vehicle: Klucel (hydroxypropylcellulose) (HPC)
[5] = dose: 25.0 mg/kg/injection, schedule: Q04DX002 (ip), vehicle: Klucel (hydroxypropylcellulose) (HPC)
[6] = dose: 50.0 mg/kg/injection, schedule: Q04DX002 (ip), vehicle: Klucel (hydroxypropylcellulose) (HPC)
[7] = dose: 100.0 mg/kg/injection, schedule: Q01DX001 (ip), vehicle: saline with Tween-80
[8] = dose: 200.0 mg/kg/injection, schedule: Q01DX001 (ip), vehicle: saline with Tween-80
[9] = dose: 100.0 mg/kg/injection, schedule: Q04DX003 (ip), vehicle: Klucel (hydroxypropylcellulose) (HPC)
[10] = dose: 200.0 mg/kg/injection, schedule: Q04DX003 (ip), vehicle: Klucel (hydroxypropylcellulose) (HPC)
[11] = dose: 400.0 mg/kg/injection, schedule: Q04DX003 (ip), vehicle: Klucel (hydroxypropylcellulose) (HPC)
[12] = dose: 100.0 mg/kg/injection, schedule: Q01DX009 (ip), vehicle: Klucel (hydroxypropylcellulose) (HPC)
[13] = dose: 100.0 mg/kg/injection, schedule: Q04DX003 (ip), vehicle: saline
[14] = dose: 200.0 mg/kg/injection, schedule: Q01DX009 (ip), vehicle: Klucel (hydroxypropylcellulose) (HPC)
[15] = dose: 200.0 mg/kg/injection, schedule: Q04DX003 (ip), vehicle: saline
[16] = dose: 400.0 mg/kg/injection, schedule: Q01DX009 (ip), vehicle: Klucel (hydroxypropylcellulose) (HPC)
[17] = dose: 400.0 mg/kg/injection, schedule: Q04DX003 (ip), vehicle: saline
[18] = dose: 100.0 mg/kg/injection, schedule: Q04DX003 (ip), vehicle: saline with Tween-80
[19] = dose: 200.0 mg/kg/injection, schedule: Q04DX003 (ip), vehicle: saline with Tween-80
[20] = dose: 400.0 mg/kg/injection, schedule: Q01DX009 (ip), vehicle: saline with Tween-80
[21] = dose: 400.0 mg/kg/injection, schedule: Q04DX003 (ip), vehicle: saline with Tween-80
[22] = dose: 50.0 mg/kg/injection, schedule: Q04DX003 (ip), vehicle: Klucel (hydroxypropylcellulose) (HPC)
[23] = dose: 100.0 mg/kg/injection, schedule: Q01DX001 (ip), vehicle: saline
[24] = dose: 200.0 mg/kg/injection, schedule: Q01DX001 (ip), vehicle: saline
[25] = dose: 400.0 mg/kg/injection, schedule: Q01DX001 (ip), vehicle: saline

Measured: T/C

CC(C)c1cc[n+]([O-])cc1
inactive: [1] 94 % of control | [2] 94 % of control | [3] 91 % of control

O=C(CCl)c1cccnc1C(=O)O
inactive: dose: 25.0 mg/kg/injection, schedule: Q01DX009 (ip), vehicle: saline sonified 94 % of control | dose: 50.0 mg/kg/injection, schedule: Q01DX009 (ip), vehicle: saline sonified 91 % of control | dose: 100.0 mg/kg/injection, schedule: Q01DX009 (ip), vehicle: saline sonified 89 % of control

CSc1nnn(C(C)(C)C)n1
inactive: dose: 100.0 mg/kg/injection, schedule: Q01DX001 (ip), vehicle: acetone 100 % of control | dose: 200.0 mg/kg/injection, schedule: Q01DX001 (ip), vehicle: acetone 91 % of control

N=C(N)CSS(=O)(=O)O
inactive: dose: 12.5 mg/kg/injection, schedule: Q01DX009 (ip), vehicle: Klucel (hydroxypropylcellulose) (HPC) 107 % of control | [4] 104 % of control | dose: 25.0 mg/kg/injection, schedule: Q01DX009 (ip), vehicle: Klucel (hydroxypropylcellulose) (HPC) 107 % of control | [5] 101 % of control | [6] 93 % of control

CCC1SC(=S)N(C(=O)c2ccc([N+](=O)[O-])cc2)C1CC (stereo not given)
inactive: [5] 111 % of control | [6] 95 % of control

Oc1cccc(C(c2ccccc2)C2CCCCC2)c1 (stereo not given)
inactive: [7] 98 % of control | [8] 88 % of control | dose: 400.0 mg/kg/injection, schedule: Q01DX001 (ip), vehicle: saline with Tween-80 98 % of control

CC(C)(C)C(=O)C(Br)Br
inactive: [5] 101 % of control | [6] 96 % of control | dose: 100.0 mg/kg/injection, schedule: Q04DX002 (ip), vehicle: Klucel (hydroxypropylcellulose) (HPC) 97 % of control and 101 % of control

CCC(CCl)NC(=O)Nc1cccc2c1CCCC2 (stereo not given)
inactive: [9] 98 % of control | [10] 96 % of control | [11] 98 % of control

CCOP(=O)(OCC)O/N=C(/C)c1cccc([N+](=O)[O-])c1
inactive: dose: 5.0 mg/kg/injection, schedule: Q01DX001 (ip), vehicle: saline 100 % of control | dose: 10.0 mg/kg/injection, schedule: Q01DX001 (ip), vehicle: saline 97 % of control

N#Cc1c(Br)n(C2OC(CO)C(O)C2O)c2ncncc12 (stereo not given)
inactive: dose: 100.0 mg/kg/injection, schedule: Q01DX005 (ip), vehicle: saline 114 % of control | dose: 200.0 mg/kg/injection, schedule: Q01DX005 (ip), vehicle: saline 114 % of control

Cc1cc(Cl)ccc1NC(=O)c1ccccc1Cl
inactive: [12] 101 % of control | [13] 109 % of control | [14] 90 % of control | [15] 106 % of control | [16] 89 % of control | [17] 106 % of control

N#C/C(=C1C=C(Br)/C(=N\O)C=C\1Cl)c1cccc2ccccc12
inactive: [2] 98 % of control | [18] 95 % of control | [3] 93 % of control | [19] 90 % of control | [20] 94 % of control | [21] 104 % of control

C#CCCCCC#CCCCCNC(=O)NCCCCC#CCCCCC#C
inactive: [13] 93 % of control | [15] 90 % of control | [17] 87 % of control

CCCCOP(=O)(OCCCC)C(O)CCC (stereo not given)
inactive: [7] 93 % of control | [18] 104 % of control | [8] 93 % of control | [19] 98 % of control

COc1ccc(NC(=O)Nc2ccccc2C(N)=O)cc1
inactive: dose: 50.0 mg/kg/injection, schedule: Q01DX009 (ip), vehicle: Klucel (hydroxypropylcellulose) (HPC) 93 % of control | [12] 93 % of control | [14] 96 % of control

C#CCCCCCCCCC(=O)NCC
inactive: [12] 100 % of control | [9] 95 % of control | [10] 93 % of control | [16] 104 % of control | [11] 108 % of control

CCCCC(CC)COc1nc(OCC(CC)CCCC)nc(OCC(CC)CCCC)n1 (stereo not given)
inactive: dose: 25.6 mg/kg/injection, schedule: Q04DX002 (ip), vehicle: saline with Tween-80 91 % of control | dose: 64.0 mg/kg/injection, schedule: Q04DX002 (ip), vehicle: saline with Tween-80 91 % of control | [18] 88 % of control | dose: 160.0 mg/kg/injection, schedule: Q04DX002 (ip), vehicle: saline with Tween-80 91 % of control | [19] 92 % of control | dose: 400.0 mg/kg/injection, schedule: Q04DX002 (ip), vehicle: saline with Tween-80 87 % of control | [21] 87 % of control

CC(C)CN=C(N)CSS(=O)(=O)O
inactive: [4] 102 % of control | [5] 105 % of control | [6] 94 % of control | dose: 200.0 mg/kg/injection, schedule: Q04DX002 (ip), vehicle: Klucel (hydroxypropylcellulose) (HPC) 94 % of control

C=CCCCCCCCCCC
inactive: [22] 97 % of control | [23] 98 % of control | [9] 95 % of control | [24] 101 % of control | [10] 97 % of control | [25] 96 % of control

ClCc1ccc(CCl)c(Cl)c1
inactive: dose: 25.0 mg/kg/injection, schedule: Q04DX003 (ip), vehicle: Klucel (hydroxypropylcellulose) (HPC) 86 % of control | [22] 97 % of control | [9] 94 % of control

O=C(O)C(Oc1ccccc1)Oc1ccccc1
inactive: dose: 50.0 mg/kg/injection, schedule: Q01DX001 (ip), vehicle: alkali diluted with saline 100 % of control | dose: 100.0 mg/kg/injection, schedule: Q01DX001 (ip), vehicle: alkali diluted with saline 96 % of control | dose: 200.0 mg/kg/injection, schedule: Q01DX001 (ip), vehicle: alkali diluted with saline 100 % of control | dose: 400.0 mg/kg/injection, schedule: Q01DX001 (ip), vehicle: alkali diluted with saline 96 % of control

COCc1ccc(C(=O)O)cc1
inactive: dose: 100.0 mg/kg/injection, schedule: Q01DX009 (ip), vehicle: gum acacia 101 % of control | dose: 200.0 mg/kg/injection, schedule: Q01DX009 (ip), vehicle: gum acacia 97 % of control | dose: 400.0 mg/kg/injection, schedule: Q01DX009 (ip), vehicle: gum acacia 101 % of control

Clc1ccc(/C=N/N2CCN(/N=C/c3ccc(Cl)c(Cl)c3)CC2)cc1Cl
inactive: [23] 92 % of control | [24] 92 % of control | [25] 92 % of control

C=CC(C)(O)C(C)(C)C (stereo not given)
inactive: [1] 100 % of control | [2] 96 % of control | [3] 100 % of control

CCOC(=O)c1cnc(SC)nc1Sc1ccc(Cl)cc1
inactive: [2] 96 % of control | [18] 96 % of control | [3] 94 % of control | [19] 96 % of control | [20] 98 % of control | [21] 94 % of control

CC(C)/C=N\O
inactive: [18] 104 % of control | [19] 123 % of control | [21] 109 % of control

CCOC(=O)C(=CN1CCCCCC1)C(=O)OCC
inactive: [13] 106 % of control | [15] 97 % of control | [17] 89 % of control

O=CCSC(=S)NNc1ccccc1
inactive: [12] 106 % of control | [9] 88 % of control | [14] 95 % of control | [10] 91 % of control | [11] 96 % of control

CSc1ccc(OC(=O)Nc2ccc(C)c([N+](=O)[O-])c2)cc1C
inactive: [2] 89 % of control | [3] 89 % of control

Oc1cc(CN2CCCC2)c(O)cc1CN1CCCC1
inactive: dose: 75.0 mg/kg/injection, schedule: Q01DX001 (ip), vehicle: carboxymethylcellulose (CMC) 111 % of control | dose: 150.0 mg/kg/injection, schedule: Q01DX001 (ip), vehicle: carboxymethylcellulose (CMC) 105 % of control

O=C1OC(n2ccc3ccccc32)c2ccccc21 (stereo not given)
inactive: [23] 105 % of control | [13] 89 % of control | [24] 96 % of control | [15] 92 % of control | [25] 102 % of control | [17] 89 % of control

Clc1ccc2nsnc2c1Cl
inactive: [9] 95 % of control | [10] 98 % of control | [11] 98 % of control

C=CCNC(=S)NCc1ccc(C)cc1
inactive: [12] 96 % of control | [14] 93 % of control

Cc1ccc(S(=O)(=O)OCCN(CCOS(=O)(=O)c2ccc(C)cc2)c2ccc(N=O)cc2)cc1
inactive: dose: 50.0 mg/kg/injection, schedule: Q01DX001 (ip), vehicle: saline 115 % of control | [23] 124 % of control

Cl/C=C/CSc1ccccc1
inactive: [23] 100 % of control | [24] 103 % of control | [25] 100 % of control
